In PubChem BioAssay AID330 (DTP/NCI, 2004):
Where “and” joins values, the source holds several entries; their conditions need not be identical. Equal values may be shown once. Inconclusive results and toxic doses are left out. Rule for the calls: active = survival T/C of 150% or more; inactive = T/C below 125% in these data.

System: P388 leukemia ip, CD2F1 mice, survival T/C
Test: NCI In Vivo Anticancer Drug Screen. Data for tumor model P388 Leukemia (intraperitoneal) in CD2F1 (CDF1) mice
Conditions: endpoint: median survival time, higher = longer survival
Method in brief: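 Mice carrying the transplanted tumor received test compound or vehicle. Survival was recorded in each group, and the value is the treated-group measurement divided by that of the vehicle-treated control group.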

[1] = dose: 25.0 mg/kg/injection, schedule: Q01DX005 (ip), vehicle: Klucel (hydroxypropylcellulose) (HPC)
[2] = dose: 50.0 mg/kg/injection, schedule: Q01DX005 (ip), vehicle: Klucel (hydroxypropylcellulose) (HPC)
[3] = dose: 200.0 mg/kg/injection, schedule: Q01DX005 (ip), vehicle: Klucel (hydroxypropylcellulose) (HPC)
[4] = dose: 50.0 mg/kg/injection, schedule: Q01DX009 (ip), vehicle: saline
[5] = dose: 100.0 mg/kg/injection, schedule: Q01DX009 (ip), vehicle: saline
[6] = dose: 200.0 mg/kg/injection, schedule: Q01DX009 (ip), vehicle: saline
[7] = dose: 50.0 mg/kg/injection, schedule: Q01DX005 (ip), vehicle: saline with Tween-80
[8] = dose: 100.0 mg/kg/injection, schedule: Q01DX005 (ip), vehicle: saline with Tween-80
[9] = dose: 200.0 mg/kg/injection, schedule: Q01DX005 (ip), vehicle: saline with Tween-80
[10] = dose: 60.0 mg/kg/injection, schedule: Q01DX005 (ip), vehicle: saline with Tween-80
[11] = dose: 120.0 mg/kg/injection, schedule: Q01DX005 (ip), vehicle: saline with Tween-80
[12] = dose: 50.0 mg/kg/injection, schedule: Q01DX009 (ip), vehicle: Klucel (hydroxypropylcellulose) (HPC)
[13] = dose: 100.0 mg/kg/injection, schedule: Q01DX009 (ip), vehicle: Klucel (hydroxypropylcellulose) (HPC)
[14] = dose: 50.0 mg/kg/injection, schedule: Q01DX009 (ip), vehicle: saline with Tween-80
[15] = dose: 100.0 mg/kg/injection, schedule: Q01DX009 (ip), vehicle: saline with Tween-80
[16] = dose: 200.0 mg/kg/injection, schedule: Q01DX009 (ip), vehicle: saline with Tween-80

Measured: T/C

CCN=C(NCC)Nc1ccc(NC(=O)Nc2ccc(NC(=O)Nc3ccc(NC(=NCC)NCC)cc3)cc2)cc1
inactive: dose: 6.25 mg/kg/injection, schedule: Q01DX005 (ip), vehicle: Klucel (hydroxypropylcellulose) (HPC) 107 % of control | dose: 12.5 mg/kg/injection, schedule: Q01DX005 (ip), vehicle: Klucel (hydroxypropylcellulose) (HPC) 117 % of control | [1] 121 % of control and 123 % of control | [2] 117 % of control | [3] 90 % of control

Oc1cc2c(cc1O)[C@H]1c3ccc(O)c(O)c3OC[C@@]1(O)C2
inactive: dose: 6.25 mg/kg/injection, schedule: Q01DX009 (ip), vehicle: saline 100 % of control | dose: 12.5 mg/kg/injection, schedule: Q01DX009 (ip), vehicle: saline 101 % of control | dose: 25.0 mg/kg/injection, schedule: Q01DX009 (ip), vehicle: saline 112 % of control | [4] 122 % of control | [5] 113 % of control | [6] 115 % of control

O=[N+]([O-])c1ccc2c(N3CCC(CCCC4CCN(c5ncnc6cc([N+](=O)[O-])ccc56)CC4)CC3)ncnc2c1
inactive: [7] 89 % of control | [8] 96 % of control | [9] 100 % of control

CCCC(OC)=C(C(=O)OCC)C(=O)OCC
inactive: [4] 93 % of control | [5] 94 % of control | [6] 89 % of control

CCCCC(O)CNc1ccccc1 (stereo unspecified)
inactive: [10] 105 % of control | [11] 99 % of control | dose: 240.0 mg/kg/injection, schedule: Q01DX005 (ip), vehicle: saline with Tween-80 90 % of control

CC(=O)O[C@@H]1C[C@@H]2[C@@]3(C)CC[C@@H](OC(=O)CC(=O)O)C(C)(C)[C@@H]3CC[C@@]2(C)[C@]2(C)CCCC([C@]3(C)CC[C@H](C(C)(C)O)O3)[C@@H]12 (stereo partly specified)
inactive: [1] 92 % of control | [2] 99 % of control | dose: 100.0 mg/kg/injection, schedule: Q01DX005 (ip), vehicle: Klucel (hydroxypropylcellulose) (HPC) 92 % of control and 97 % of control | [3] 86 % of control and 98 % of control | dose: 400.0 mg/kg/injection, schedule: Q01DX005 (ip), vehicle: Klucel (hydroxypropylcellulose) (HPC) 91 % of control

CC(C)(C)c1ccc(N)c(N)c1
inactive: dose: 50.0 mg/kg/injection, schedule: Q01DX009 (ip), vehicle: DMSO 98 % of control | dose: 100.0 mg/kg/injection, schedule: Q01DX009 (ip), vehicle: DMSO 99 % of control

CC1=CC(=O)C(O)C2(C)C1CC1OC(=O)C(O)C3(O)C4(C)OCC13C2C(O)C4O (stereo unspecified)
inactive: dose: 0.19 mg/kg/injection, schedule: Q01DX009 (ip), vehicle: saline + alcohol 102 % of control | dose: 0.38 mg/kg/injection, schedule: Q01DX009 (ip), vehicle: saline + alcohol 105 % of control | dose: 0.75 mg/kg/injection, schedule: Q01DX009 (ip), vehicle: saline + alcohol 119 % of control | dose: 1.5 mg/kg/injection, schedule: Q01DX009 (ip), vehicle: saline + alcohol 105 % of control and 112 % of control

COc1cc2oc3c(C)c(=O)cc4oc(-c5ccccc5)cc(c2c2c1CCC(c1ccccc1)O2)c43 (stereo unspecified)
116 % of control and 211 % of control: dose: 7.0 mg/kg/injection, schedule: Q01DX005 (ip), vehicle: Klucel (hydroxypropylcellulose) (HPC)
inactive: dose: 6.25 mg/kg/injection, schedule: Q01DX005 (ip), vehicle: saline with Tween-80 106 % of control | dose: 12.5 mg/kg/injection, schedule: Q01DX005 (ip), vehicle: saline with Tween-80 106 % of control | dose: 14.0 mg/kg/injection, schedule: Q01DX005 (ip), vehicle: Klucel (hydroxypropylcellulose) (HPC) 98 % of control | dose: 25.0 mg/kg/injection, schedule: Q01DX005 (ip), vehicle: saline with Tween-80 121 % of control | [7] 124 % of control | [8] 114 % of control

C(=NCc1ccccc1)c1ccccc1-c1ccccc1C=NCc1ccccc1
inactive: dose: 12.5 mg/kg/injection, schedule: Q01DX009 (ip), vehicle: Klucel (hydroxypropylcellulose) (HPC) 92 % of control | [12] 86 % of control | [13] 100 % of control

CC(C)CCCN(CCCC(C)C)CC(O)c1cc2c(c3ccccc13)CCCC2 (stereo unspecified)
inactive: [7] 113 % of control | [8] 103 % of control | [9] 113 % of control

CCCCC(=O)Nc1ccc(S(=O)(=O)O)c(N=NC2C(=O)N(c3ccccc3)N=C2C)c1 (stereo unspecified)
inactive: dose: 100.0 mg/kg/injection, schedule: Q04DX003 (ip), vehicle: saline 110 % of control | dose: 200.0 mg/kg/injection, schedule: Q04DX003 (ip), vehicle: saline 100 % of control | dose: 400.0 mg/kg/injection, schedule: Q04DX003 (ip), vehicle: saline 100 % of control

CCC(=O)[C@]1(O)Cc2c(O)c3c(c(O)c2[C@@H](OC2CC(N)C(O)C(C)O2)C1)C(=O)c1c(OC)cccc1C3=O (stereo partly specified)
inactive: dose: 3.13 mg/kg/injection, schedule: Q04DX003 (ip), vehicle: water 102 % of control | dose: 6.25 mg/kg/injection, schedule: Q04DX003 (ip), vehicle: water 112 % of control | dose: 12.5 mg/kg/injection, schedule: Q04DX003 (ip), vehicle: water 119 % of control | dose: 25.0 mg/kg/injection, schedule: Q04DX003 (ip), vehicle: water 119 % of control | dose: 50.0 mg/kg/injection, schedule: Q04DX003 (ip), vehicle: water 110 % of control

CNNC(=O)C(=O)n1ccnc1
inactive: dose: 50.0 mg/kg/injection, schedule: Q01DX005 (ip), vehicle: saline 104 % of control | dose: 100.0 mg/kg/injection, schedule: Q01DX005 (ip), vehicle: saline 103 % of control | dose: 200.0 mg/kg/injection, schedule: Q01DX005 (ip), vehicle: saline 101 % of control

CN(C)CCO[Si](C)(c1ccccc1)c1ccc(F)cc1 (stereo unspecified)
inactive: dose: 12.5 mg/kg/injection, schedule: Q01DX009 (ip), vehicle: saline with Tween-80 100 % of control | dose: 25.0 mg/kg/injection, schedule: Q01DX009 (ip), vehicle: saline with Tween-80 101 % of control | [14] 98 % of control and 101 % of control | [15] 99 % of control | [16] 114 % of control

Cc1cc(C)cc(N(C2=NCCS2)C2=NCCS2)c1
inactive: dose: 25.0 mg/kg/injection, schedule: Q01DX009 (ip), vehicle: Klucel (hydroxypropylcellulose) (HPC) 106 % of control | [12] 101 % of control | [13] 99 % of control | dose: 200.0 mg/kg/injection, schedule: Q01DX009 (ip), vehicle: Klucel (hydroxypropylcellulose) (HPC) 104 % of control

O=C(NC1CCCCC1)C(=O)c1cc(Cl)c(Cl)c(Cl)c1Cl
inactive: [14] 106 % of control | [15] 114 % of control | [16] 103 % of control

C[n+]1cccc(C2(O)CCCC2)c1
inactive: [14] 113 % of control | [15] 104 % of control | [16] 99 % of control

CCOC(=O)Nc1cc(N(C)CC(O)c2ccccc2)c(N)c(N)n1 (stereo unspecified)
inactive: dose: 50.0 mg/kg/injection, schedule: Q01DX001 (ip), vehicle: saline with Tween-80 104 % of control | dose: 100.0 mg/kg/injection, schedule: Q01DX001 (ip), vehicle: saline with Tween-80 94 % of control | dose: 200.0 mg/kg/injection, schedule: Q01DX001 (ip), vehicle: saline with Tween-80 94 % of control

COc1cccc2c1C(=O)c1c(O)c3c(c(O)c1C2=O)CC(O)(C(C)=O)CC3OC1CC(N)C(C(C)O)O1 (stereo unspecified)
inactive: dose: 2.25 mg/kg/injection, schedule: Q04DX003 (ip), vehicle: distilled water + Tween-80 100 % of control | dose: 4.5 mg/kg/injection, schedule: Q04DX003 (ip), vehicle: distilled water + Tween-80 99 % of control | dose: 9.0 mg/kg/injection, schedule: Q04DX003 (ip), vehicle: distilled water + Tween-80 110 % of control | dose: 18.0 mg/kg/injection, schedule: Q04DX003 (ip), vehicle: distilled water + Tween-80 101 % of control | dose: 36.0 mg/kg/injection, schedule: Q04DX003 (ip), vehicle: distilled water + Tween-80 110 % of control

CC(C)=NOC1CCCCC1OS(=O)(=O)c1ccc(C)cc1 (stereo unspecified)
inactive: [14] 94 % of control | [15] 95 % of control | [16] 110 % of control

Nc1ccc2c(SCCCCSc3c4ccccc4nc4cc(N)ccc34)c3ccccc3nc2c1
inactive: [10] 106 % of control | [11] 100 % of control

CN(C)c1ccc(/C=N/c2nc(-c3ccccc3)cs2)cc1
inactive: [4] 115 % of control | [5] 111 % of control | [6] 101 % of control
